In patent US6541463B1, “Inhibitors of type 5 and type 3 17β-hydroxysteroid dehydrogenase and methods for their use” (Endorecherche, Inc., priority 1998, dated 2003):
Like-named read-outs stand apart in the source and are kept apart here.

Legend:
[1] = test system: Shionogi mouse mammary carcinoma cells; test: Androgenic activity: stimulation of proliferation of Shionogi cells; assay type: cell-based
Method: In column 9, the androgenic activity of preferred type 5 inhibitors expressed as the percentage of stimulation of proliferation of Shionogi cells at concentrations of 10^−7 M (left number) and 10^−6 M (right number) of inhibitor. The manner in which the stimulation is determined is described in “Other Tests; B-Androgenic/Antiandrogenic Activity”. Lower numbers are desirable. ND means that a determination was not done.
(§1) Androgenic/antiandrogenic activity of some preferred compounds has been measured using the Shionogi mouse mammary carcinoma cells.
(§2) Minimal essential culture medium (MEM), non-essential amino acids, and fetal calf serum were purchased from Flow Laboratories. In order to remove endogenous steroids, serum was incubated overnight at 4° C. with 1% activated charcoal (Norit A, Fisher) and 0.1% Dextran T-70 (Pharmacia). A 2-h supplementary adsorption was performed at 25° C. in order to further remove protein-bound steroids. Serum was also inactivated by a 20-min incubation at 56° C.
(§3) 5α-dihydrotestosterone (DHT) was obtained from Steraloids. The antiandrogen hydroxyflutamide (OH-FLU) was kindly supplied by Drs. T. L. Nagabuschan and R. Neri (Schering Corporation, Kenilworth, U.S.A.).
(§4) Shionogi male mice bearing androgen-sensitive mammary tumors were obtained from Drs. Keishi Matsumoto, Osaka, Japan, and Yvonne Lefebvre, Ottawa, Canada. For primary culture, tumors were excised and washed in ice-cold sterile 25 mM Hepes buffer (137 mM NaCl; 5 mM KCl; 0.7 mM Na2HPO4; 10 mM glucose, pH 7.2). After mincing with scissors, the tumor minces were digested for 2 h at 37° C. in Hepes buffer containing 3.8 mg/ml collagenase (Clostridium, Boehringer), 1.5 mg/ml hyaluronidase II (Sigma), and 3% bovine serum albumin fraction V (Schwartz-Mann). Dispersed cells were collected by centrifugation (500×g for 10 min), washed twice by suspension in minimal essential medium (MEM) containing 5% dextran-coated charcoal-treated fetal calf serum (DCC-FCS), 1% non-essential amino acids, 10 IU/ml penicillin, 50 μg/ml streptomycin, and 100 nM dihydrotestosterone (DHT) (Steraloids).
(§5) Cells were plated in the same medium at a density of 75 000 cells/ml in 75 cm^2 flasks under an atmosphere of 5% carbon dioxide in air at 37° C. The medium was changed weekly. The steroids and antisteroids were dissolved in ethanol and kept in stock solutions chosen to yield final ethanol concentrations less than 0.01% in the culture medium.
(§6) Cells were subcultured at near-confidence by gentle digestion in a solution of 0.1% pancreatin (Flow Laboratories) in Hepes buffer containing 3 mM ethylenediaminetetraacetic acid (EDTA) (pH 7.2). Cells were pelleted by centrifugation, resuspended in culture medium, counted in a Coulter counter, and replated as described above. Soft agar cloning was performed as described (Stanley et al., Cell 10: 35-44, 1977) in the presence of 100 nM DHT.
(§7) Cells were plated in 24-well plates at a density of 20 000 cells/well. The indicated increasing concentrations of agents were added to triplicate dishes, and cells were grown for 10-12 days with changes of medium every 3-4 days. Cell number was measured by direct counting in a Coulter counter.
(§8) ED50 values of action of DHT and glucocorticoids were calculated according to a least-square regression as described (Rodbard, Endocrinology 94: 1427-1431, 1974). Statistical significance was calculated according to a multiple-range test (Kramer, Biometrics 12: 307-310,1956).

[2] = test system: Shionogi mouse mammary carcinoma cells; test: Antiandrogenic activity: inhibition of DHT-induced proliferation of Shionogi cells; assay type: cell-based; conditions: for IC50: Mus musculus
Method: The manner in which the inhibition is determined is described in “Other Tests; B-Androgenic/Antiandrogenic Activity”. Lower numbers are desirable. ND means that a determination was not done.
as §1, §2, §3, §4, §5, §6, §7, §8

[3] = Table 4′, DHT-induced proliferation, E^−6 (10^−6 M)
[4] = Table 4′, DHT-induced proliferation, E^−7

Structure (SMILES)	Androgenic Activity Shionogi, Basal E^−6 ([1]; Table 4′, E^−6) [%]	Androgenic Activity Shionogi, Basal E^−7 ([1]; Table 4′, E^−7)	Antiandrogenic Activity Shionogi, DHT E^−6 [2, 3] [%]	Antiandrogenic Activity Shionogi, DHT E^−7 [2, 4]	other results
CC1CCC2(CCC3C4CCc5cc(O)c([N+](=O)[O-])cc5C4CCC32C)OC1=O [EM-1126, 2-Nitro-1,3,5(10)-estratrien-3-ol-17(R)-spiro-2′-(5′-methyl-6′-oxo)tetrahydropyran]	−8	0%	−49	0%	
COCCOc1cc2c(cc1F)C1CCC3(C)C(CCC34CCC(C)(C)C(=O)O4)C1CC2 (stereo not shown) [EM-1393-CS]	−10	88%	−104	27%	
CC1CC(=O)OC2(CCC3C4CCc5cc(O)ccc5C4CCC32C)C1 [PB-132-142, 3-Hydroxy-1,3,5(10)-estratrien-17(R)-spiro-2′-(4′-methyl-6′-oxo)tetrahydropyran]	−17	25%	−13	0%	
C[C@]12CCC3c4ccc(O)cc4CCC3C1CC[C@@]21CCCC(=O)O1 (stereo partly drawn) [EM-919, 1,3,5(10)-estratrien-3-ol-17(R)-spiro-2′(6′-oxo)tetrahydropyran]	−17	+73%	−95	+38%	IC50 ([2]; Table 4′, bracketed values, read-out: Antiandrogenic Activity Shionogi, DHT [IC50 (nM)]): 609 nM
COCCOc1cc2c(cc1C(=O)O)C1CCC3(C)C(CCC34CCC(C)(C)C(=O)O4)C1CC2 [EM-1405, 2-Carboxy-3-(2″-methoxyethyloxy)-1,3,5(10)-estratrien-17(R)-spiro-2′-(5′,5′-dimethyl-6′-oxo)tetrahydropyran]	0	0%	0	0%	
COC(=O)CCCC(=O)O[C@]1(C(C)=O)CC[C@H]2[C@@H]3C=C(C)C4=CC(=O)CC[C@]4(C)[C@H]3CC[C@@]21C [EM-1007, 6-Methyl-4,6-pregnadien-17α-ol-3,20-dione 4′-Carbomethoxybutyrate]					Androgenic Activity Shionogi, Basal ([1]; E^−6): −31; Androgenic Activity Shionogi, Basal ([1]; E^−7): 0; Antiandrogenic Activity Shionogi, DHT ([2]; DHT, E^−6): −76; Antiandrogenic Activity Shionogi, DHT ([2]; DHT, E^−7): −14
CC(=O)O[C@]1(C)C(=O)CCC2C3C=C(C)C4=CC(=O)C=C[C@]4(C)C3CC[C@@]21C (stereo partly shown) [CS-237]					Androgenic Activity Shionogi, Basal E^−6 ([1]; E^−6): −29; Androgenic Activity Shionogi, Basal E^−7 ([1]; E^−7): −22; IC50 ([2]; with DHT, value in square brackets on second line, read-out: Antiandrogenic Activity Shionogi DHT [IC50 (nM)]): 95 nM; Antiandrogenic Activity Shionogi, DHT E^−6 ([2]; with DHT, E^−6): −106; Antiandrogenic Activity Shionogi, DHT E^−7 ([2]; with DHT, E^−7): −51
COCCOc1ccc2c(c1)C(=O)CC1C2CCC2(C)C1CCC21CCC(C)(C)C(=O)O1 (stereo not shown) [EM-1408-CS]	−12	0%	−94	−19%	
CCS(=O)(=O)Oc1ccc2c(c1)CCC1C2CCC2(C)C1CCC21CCC(C)(C)C(=O)O1 (stereo not shown) [EM-1364-CS]	−16	0%	−59	−11%	
CC1(C)CCC2(CCC3C4CCc5cc(O)c([N+](=O)[O-])cc5C4CCC32C)OC1=O (stereo not shown) [EM-1125-CS]	−10	3%	−43	−30%	
CN1C(=O)C=C[C@]2(C)C3CC[C@@]4(C)C(CC[C@@]45CCCC(=O)O5)C3CCC12 (stereo partly shown) [EM-1122-CS]					Androgenic Activity Shlonogl, Basal E^−6 ([1]; Table 5 column 9, E^−6): −11%; Androgenic Activity Shlonogl, Basal E^−7 ([1]; Table 5 column 9, E^−7): 0%; IC50 ([2]; Table 5, bracketed value, read-out: Antiandrogenic Activity Shlonogl, DHT [IC50 (nM)]): 447 nM; Antiandrogenic Activity Shlonogl, DHT E^−6 ([2]; Table 5, DHT, E^−6): −74%; Antiandrogenic Activity Shlonogl, DHT E^−7 ([2]; Table 5, DHT, E^−7): −14%
CC1(C)CCC2(CCC3C4CCc5cc(OCCN6CCCCC6)ccc5C4CCC32C)OC1=O [EM-1390-CS, 3-(N-piperidyl-ethyl)-1,3,5(10)-estratrien-17(R)-spiro-2′-(5′,5′-dimethyl-6′-oxo)-tetrahydropyran]	−43	−18%	−119	−36%	
COc1ccc2c(c1)C(=O)CC1C2CC[C@@]2(C)C1CC[C@@]21CCC(C)(C)C(=O)O1 (stereo partly shown) [EM-1394]	−12	4%	−23	0%	
CC1(C)CCC2(CCC3C4CCc5c(cc(Cl)c(O)c5Cl)C4CCC32C)OC1=O (stereo not shown) [EM-1391-CS]	−13	0%	−19	0%	
C[C@]12CCC3c4cc([N+](=O)[O-])c(O)cc4CCC3C1CC[C@@]21CCCC(=O)O1 (stereo partly drawn) [EM-1124, 2-Nitro-1,3,5(10)-estraetriene-3-ol-17(R)-spiro-2′-(6′-oxo)tetrahydropyran]	−11	0%	−65	0%	
C=CCC1CCC2(CCC3C4CCc5cc(O)ccc5C4CCC32C)OC1=O [PB-132-152, 3-Hydroxy-1,3,5(10)-estratrien-17(R)-2′-(5′-allyl-6′-oxo)tetrahydropyran]	0	39%	−19	14%	
COCCOc1cc2c(cc1C#N)C1CC[C@@]3(C)C(CC[C@@]34CCC(C)(C)C(=O)O4)C1CC2 (stereo partly shown) [EM-1396]	−15	0%	−29	−16%	
COCCOc1cc2c(cc1C(=O)N(C)C)C1CCC3(C)C(CCC34CCC(C)(C)C(=O)O4)C1CC2 (stereo not shown) [EM-1413-CS]			−44		
CC(=O)O[C@]1(C(C)=O)CCC2C3C=C(C)C4=CC(=O)CC[C@]4(C)C3CC[C@@]21C (stereo partly shown) [megestrol acetate, reference compound]					IC50 ([2]; read-out: Antiandrogenic Activity Shionogi, DHT [IC50]): 10 nM
